Our source for the EC50 and IC50 values is patent US9139532B2, “Pyrazolyl guanidine F1F0-atpase inhibitors and therapeutic uses thereof” (Lycera Corporation, priority 2010, dated 2015).

For orientation: EC50 means the concentration that produces a half-maximal response. Broadly, the IC50 is the concentration needed to halve the response being measured.

Experiment [1] relates to Ramos cells. Kind of experiment: Cytotoxicity in Ramos cells. Format: cell-based. To be noted: cytotoxicity in Ramos cells, read-out: Ramos Cell EC50.
In experiment [2] the target is T1, F1F0-ATPase (Bos taurus, UniProt P13621).
T1 construct: from tissue
Kind of experiment: Inhibition of F1F0-ATPase activity in synthesizing ATP. Conditions: inhibition of ATP synthesis by F1F0-ATPase; read-out: ATP Syn IC50. The experiment is classed as biochemical.

Read-outs that look alike come from different tables or passages of the source.

As for `CC(C)CN/C(=N/C(=O)c1cccc([S+](C)[O-])c1)Nc1cc(-c2ccc(F)cc2)n[nH]1` (stereo not shown) [Compound A-566, (Z)—N-(((3-(4-Fluorophenyl)-1H-pyrazol-5-yl)amino)(isobutylamino)methylene)-3-(methylsulfinyl)benzamide], in experiment [1] (Homo sapiens), the EC50 was < 10 µM. Also, the half-maximal inhibitory concentration (IC50) in experiment [2] was < 10 µM.

As to `O=C(/N=c1\[nH]c2cc(C(F)(F)F)nn2c(=O)n1Cc1ccc(F)cc1Cl)c1ccc(F)c(F)c1` [Compound A-567, (E)-N-(3-(2-chloro-4-fluorobenzyl)-4-oxo-7-(trifluoromethyl)-3,4-dihydropyrazolo[1,5-a][1,3,5]triazin-2(1H)-ylidene)-3,4-difluorobenzamide], the EC50 in experiment [1] (Homo sapiens) is < 10 µM. Further, in experiment [2], the IC50 was < 10 µM.

Take `CC1(C)Cn2nc(-c3ccc(F)cc3)cc2N/C(=N\C(=O)c2ccc(F)cc2)N1` [Compound A-568, (Z)-4-fluoro-N-(8-(4-fluorophenyl)-4,4-dimethyl-4,5-dihydro-1H-pyrazolo[1,5-a][1,3,5]triazepin-2(3H)-ylidene)benzamide]: the EC50 in experiment [1] (Homo sapiens) is < 10 µM. The IC50 in experiment [2] was < 10 µM.

`O=C(/N=C1\Nc2cc(-c3ccc(F)cc3)nn2C[C@@H]2CCCN12)c1ccc(F)cc1` [Compound A-569, (S,E)-4-fluoro-N-(2-(4-fluorophenyl)-8,9,9a,10-tetrahydro-4H-pyrazolo[1,5-a]pyrrolo[1,2-e][1,3,5]triazepin-5(7H)-ylidene)benzamide]: the 50% effective concentration (EC50) in experiment [1] (Homo sapiens) was > 10 µM. Besides, the 50% inhibitory concentration (IC50) in experiment [2] is > 10 µM.

In the case of `CC(C)CN/C(=N/C(=O)c1ccc(F)c(F)c1)Nc1cc(-c2ccc(CO)cc2)n[nH]1` [Compound A-570, (Z)-3,4-Difluoro-N-(((3-(4-(hydroxymethyl)phenyl)-1H-pyrazol-5-yl)amino)(isobutylamino)methylene)benzamide], in experiment [1] (Homo sapiens), the EC50 was > 10 µM. In addition, in experiment [2], the IC50 was > 10 µM.

With `COc1ccc(-c2cc(N/C(=N\C(=O)c3ccc(C(F)(F)F)cc3)NCC(C)C)[nH]n2)cc1F` [Compound A-571], in experiment [1], the concentration giving a half-maximal response (EC50) is < 10 µM. Besides, in experiment [2], the IC50 was < 10 µM.

Turning to `COC[C@H](C)N/C(=N/C(=O)c1ccc(C(F)(F)F)cc1)Nc1cc(-c2ccc(OC)c(F)c2)n[nH]1` [Compound A-572], the 50% effective concentration (EC50) in experiment [1] is > 10 µM. Also, the IC50 in experiment [2] was < 10 µM.

For `COc1ccc(-c2cc(N/C(=N\C(=O)c3ccc(C(F)(F)F)cc3)NCC(C)(C)C)[nH]n2)cc1F` [Compound A-573], in experiment [1], the EC50 was > 10 µM. Also, the half-inhibitory concentration (IC50) in experiment [2] is < 10 µM.

Consider `COc1ccc(-c2cc(N/C(=N\C(=O)c3ccc(C(F)(F)F)cc3)NC3CCCC3)[nH]n2)cc1F` [Compound A-574], for which the EC50 in experiment [1] was > 10 µM. Also, in experiment [2], the 50% inhibitory concentration (IC50) was < 10 µM.

Turning to `COc1ccc(-c2cc(N/C(=N\C(=O)c3ccc(C(F)(F)F)cc3)NC(C)(C)C)[nH]n2)cc1F` [Compound A-575], the EC50 in experiment [1] is < 10 µM. The IC50 in experiment [2] was < 10 µM.

For the compound `CC(C)CN/C(=N/C(=O)c1cccc([S+](C)[O-])c1)Nc1cc(-c2ccc(F)cc2)n[nH]1` (stereo not shown) [Compound A-576], in experiment [1], the EC50 is < 10 µM. Also, the IC50 in experiment [2] was < 10 µM.
